Data taken from ChEMBL document CHEMBL1806461, “Identification of MK-5710 ((8aS)-8a-methyl-1,3-dioxo-2-[(1S,2R)-2-phenylcyclopropyl]-N-(1-phenyl-1H-pyrazol-5-yl)hexahydroimid azo[1,5-a]pyrazine-7(1H)-carboxamide), a potent smoothened antagonist for use in Hedgehog pathway dependent malignancies, part 1” (Bioorg Med Chem Lett, 2011).
Calls of active or inactive are those of the source. The calls are words filed in the database; no cut-off is given here.

tested on: Shh Light II; assay: Cytotoxicity against mouse Shh Light2 cells assessed as cell viability at 2.5 uM; format: cell-based; conditions: not given

Row | Structure (SMILES) | Activity
1 | CN(C)C(=O)N1CCN2C(=O)N([C@H]3C[C@@H]3c3ccccc3)C(=O)C2C1 (mixture of isomers) | Non-toxic

target: T1, Protein smoothened (Homo sapiens, UniProt Q99835); assay: Displacement of [125I]-PA cyclopamine from smoothened expressed in african green monkey COS-1 cells after 10 mins by autoradiography; format: cell-based; conditions: not given
T1 sequence (Q99835 whole entry): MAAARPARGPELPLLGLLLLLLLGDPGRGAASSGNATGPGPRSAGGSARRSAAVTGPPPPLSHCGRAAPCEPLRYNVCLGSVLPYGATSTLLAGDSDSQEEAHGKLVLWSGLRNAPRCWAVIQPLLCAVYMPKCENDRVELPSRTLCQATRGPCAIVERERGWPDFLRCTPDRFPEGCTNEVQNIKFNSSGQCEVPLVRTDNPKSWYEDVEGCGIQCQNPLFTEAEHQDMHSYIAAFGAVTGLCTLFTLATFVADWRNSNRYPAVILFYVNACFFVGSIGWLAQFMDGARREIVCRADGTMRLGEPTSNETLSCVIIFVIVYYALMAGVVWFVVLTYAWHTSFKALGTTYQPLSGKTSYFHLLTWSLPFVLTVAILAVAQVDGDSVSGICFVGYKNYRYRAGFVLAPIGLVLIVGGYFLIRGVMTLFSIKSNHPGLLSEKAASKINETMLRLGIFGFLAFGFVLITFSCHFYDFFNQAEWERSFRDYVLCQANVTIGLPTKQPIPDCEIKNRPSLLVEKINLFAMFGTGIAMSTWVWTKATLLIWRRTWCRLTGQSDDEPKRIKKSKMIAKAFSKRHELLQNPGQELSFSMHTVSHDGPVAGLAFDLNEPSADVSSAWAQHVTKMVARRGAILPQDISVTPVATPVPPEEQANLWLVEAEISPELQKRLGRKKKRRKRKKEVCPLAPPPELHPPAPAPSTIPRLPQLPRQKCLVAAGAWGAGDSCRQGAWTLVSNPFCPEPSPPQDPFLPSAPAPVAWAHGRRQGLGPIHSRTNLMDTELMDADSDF

Row | Structure (SMILES) | IC50 [nM]
2 | O=C(Nc1ccccc1-c1ccccc1)c1ccc2c(c1)C(=O)N([C@H]1C[C@@H]1c1ccccc1)C2=O | 3200
3 | O=C(Nc1ccccc1-c1ccccc1)N1CCN2C(=O)N([C@H]3C[C@@H]3c3ccccc3)CC2C1 (mixture of isomers) | 1400
4 | O=C(Nc1ccnn1-c1ccccc1)N1CCN2C(=O)N([C@H]3C[C@@H]3c3ccccc3)C(=O)CC2C1 (mixture of isomers) | 7800
5 | O=C(Nc1ccnn1-c1ccccc1)N1CCN2CC(=O)N([C@H]3C[C@@H]3c3ccccc3)C(=O)C2C1 (mixture of isomers) | 5100
6 | COC(=O)N1CCN2C(=O)N([C@H]3C[C@@H]3c3ccccc3)C(=O)C2C1 (mixture of isomers) | > 1500
7 | CC(=O)N1CCN2C(=O)N([C@H]3C[C@@H]3c3ccccc3)C(=O)C2C1 (mixture of isomers) | > 1500
8 | O=C(C1CCCCC1)N1CCN2C(=O)N([C@H]3C[C@@H]3c3ccccc3)C(=O)C2C1 (mixture of isomers) | > 1500
9 | CC(C)(C)C(=O)N1CCN2C(=O)N([C@H]3C[C@@H]3c3ccccc3)C(=O)C2C1 (mixture of isomers) | 4000
10 | O=C1C2CN(CC3CCCCC3)CCN2C(=O)N1[C@H]1C[C@@H]1c1ccccc1 (mixture of isomers) | > 2500
11 | CN(C)C(=O)N1CCN2C(=O)N([C@H]3C[C@@H]3c3ccccc3)C(=O)C2C1 (mixture of isomers) | > 2500
12 | O=C(NCc1ccco1)N1CCN2C(=O)N([C@H]3C[C@@H]3c3ccccc3)C(=O)C2C1 (mixture of isomers) | > 2500
13 | O=C(NC1CCCCC1)N1CCN2C(=O)N([C@H]3C[C@@H]3c3ccccc3)C(=O)C2C1 (mixture of isomers) | 250
14 | CCCCCCNC(=O)N1CCN2C(=O)N([C@H]3C[C@@H]3c3ccccc3)C(=O)C2C1 (mixture of isomers) | 380
15 | CCCCN(CCCC)C(=O)N1CCN2C(=O)N([C@H]3C[C@@H]3c3ccccc3)C(=O)C2C1 (mixture of isomers) | 920
16 | O=C(Nc1cccc(Cl)c1Cl)N1CCN2C(=O)N([C@H]3C[C@@H]3c3ccccc3)C(=O)C2C1 (mixture of isomers) | 220
17 | O=C(Nc1cc(Cl)cc(Cl)c1)N1CCN2C(=O)N([C@H]3C[C@@H]3c3ccccc3)C(=O)C2C1 (mixture of isomers) | 280
18 | O=C(Nc1c(Cl)cccc1Cl)N1CCN2C(=O)N([C@H]3C[C@@H]3c3ccccc3)C(=O)C2C1 (mixture of isomers) | 280
19 | O=C(Nc1ccc(F)cc1Cl)N1CCN2C(=O)N([C@H]3C[C@@H]3c3ccccc3)C(=O)C2C1 (mixture of isomers) | 1100
20 | O=C(Nc1ccc2c(c1)OCO2)N1CCN2C(=O)N([C@H]3C[C@@H]3c3ccccc3)C(=O)C2C1 (mixture of isomers) | 700
21 | CN(C(=O)N1CCN2C(=O)N([C@H]3C[C@@H]3c3ccccc3)C(=O)C2C1)c1ccccc1-c1ccccc1 (mixture of isomers) | 1000

Row | Structure (SMILES) | IC50 [nM]
22 | COC(=O)c1cccc(NC(=O)N2CCN3C(=O)N([C@H]4C[C@@H]4c4ccccc4)C(=O)C3C2)c1Cl (mixture of isomers) | 1100
23 | Cc1c(Cl)cccc1NC(=O)N1CCN2C(=O)N([C@H]3C[C@@H]3c3ccccc3)C(=O)C2C1 (mixture of isomers) | 460
24 | Cc1cccc(Cl)c1NC(=O)N1CCN2C(=O)N([C@H]3C[C@@H]3c3ccccc3)C(=O)C2C1 (mixture of isomers) | 770
25 | O=C(Nc1ccc(F)c(Cl)c1Cl)N1CCN2C(=O)N([C@H]3C[C@@H]3c3ccccc3)C(=O)C2C1 (mixture of isomers) | 480
26 | O=C(Nc1c(Cl)cc(F)cc1Cl)N1CCN2C(=O)N([C@H]3C[C@@H]3c3ccccc3)C(=O)C2C1 (mixture of isomers) | 310
27 | O=C(Nc1c(Cl)cc(OC(F)(F)F)cc1Cl)N1CCN2C(=O)N([C@H]3C[C@@H]3c3ccccc3)C(=O)C2C1 (mixture of isomers) | 130
28 | O=C(Nc1c(Cl)cc(C(F)(F)F)cc1Cl)N1CCN2C(=O)N([C@H]3C[C@@H]3c3ccccc3)C(=O)C2C1 (mixture of isomers) | 280
29 | CS(=O)(=O)c1cc(Cl)c(NC(=O)N2CCN3C(=O)N([C@H]4C[C@@H]4c4ccccc4)C(=O)C3C2)c(Cl)c1 (mixture of isomers) | 77
30 | N#Cc1cc(Cl)c(NC(=O)N2CCN3C(=O)N([C@H]4C[C@@H]4c4ccccc4)C(=O)C3C2)c(Cl)c1 (mixture of isomers) | 62
31 | Cc1cc(C#N)cc(Cl)c1NC(=O)N1CCN2C(=O)N([C@H]3C[C@@H]3c3ccccc3)C(=O)C2C1 (mixture of isomers) | 84
32 | O=C(Nc1ccccc1C(F)(F)F)N1CCN2C(=O)N([C@H]3C[C@@H]3c3ccccc3)C(=O)C2C1 (mixture of isomers) | 890
33 | O=C(Nc1ccccc1-c1ccccc1)N1CCN2C(=O)N(CCc3ccccc3)C(=O)C2C1 (racemic) | 2000
34 | O=C(Nc1ccccc1-c1ccccc1)N1CCN2C(=O)N(Cc3ccccc3)C(=O)C2C1 (racemic) | > 2500
35 | O=C(Nc1ccccc1-c1ccccc1)N1CCN2C(=O)N(c3cccc4ccccc34)C(=O)C2C1 (racemic) | > 2500
36 | O=C(Nc1ccccc1-c1ccccc1)N1CCN2C(=O)N(c3cccc(-c4ccccc4)c3)C(=O)C2C1 (racemic) | > 2500
37 | CCCCN1C(=O)C2CN(C(=O)Nc3ccccc3-c3ccccc3)CCN2C1=O (racemic) | > 2500
38 | O=C(Nc1ccccc1-c1ccccc1)N1CCN2C(=O)N(C3CC34CCCCC4)C(=O)C2C1 (racemic) | > 2500
39 | O=C(Nc1ccccc1-c1ccccc1)N1CCN2C(=O)N([C@H]3C[C@H](c4ccccc4)C3)C(=O)C2C1 (mixture of isomers) | 440
40 | O=C(Nc1ccccc1-c1ccccc1)N1CCN2C(=O)N(C3Cc4ccccc4C3)C(=O)C2C1 (racemic) | 880

More lines, now with the values ahead:

Row | IC50 [nM] | Structure (SMILES)
41 | 220 | O=C(Nc1ccccc1-c1ccsc1)N1CCN2C(=O)N([C@H]3C[C@@H]3c3ccccc3)C(=O)C2C1 (mixture of isomers)
42 | 1800 | O=C(Nc1ccccc1-c1cnco1)N1CCN2C(=O)N([C@H]3C[C@@H]3c3ccccc3)C(=O)C2C1 (mixture of isomers)
43 | 12 | O=C(Nc1cccnc1-c1ccccc1)N1CCN2C(=O)N([C@H]3C[C@@H]3c3ccccc3)C(=O)C2C1 (mixture of isomers)
44 | 88 | O=C(Nc1ccncc1-c1ccccc1)N1CCN2C(=O)N([C@H]3C[C@@H]3c3ccccc3)C(=O)C2C1 (mixture of isomers)
45 | 680 | O=C(Nc1cccnc1-c1ccc(Cl)cc1)N1CCN2C(=O)N([C@H]3C[C@@H]3c3ccccc3)C(=O)C2C1 (mixture of isomers)
46 | 19 | O=C(Nc1cccnc1-c1cccc(Cl)c1)N1CCN2C(=O)N([C@H]3C[C@@H]3c3ccccc3)C(=O)C2C1 (mixture of isomers)
47 | 140 | O=C(Nc1cccnc1-c1ccccc1Cl)N1CCN2C(=O)N([C@H]3C[C@@H]3c3ccccc3)C(=O)C2C1 (mixture of isomers)
48 | 160 | O=C(Nc1cccnc1-c1cccc(C(F)(F)F)c1)N1CCN2C(=O)N([C@H]3C[C@@H]3c3ccccc3)C(=O)C2C1 (mixture of isomers)
49 | 47 | COc1cccc(-c2ncccc2NC(=O)N2CCN3C(=O)N([C@H]4C[C@@H]4c4ccccc4)C(=O)C3C2)c1 (mixture of isomers)
50 | 88 | O=C(Nc1cccnc1-c1ccsc1)N1CCN2C(=O)N([C@H]3C[C@@H]3c3ccccc3)C(=O)C2C1 (mixture of isomers)
51 | 620 | Cn1cc(-c2ncccc2NC(=O)N2CCN3C(=O)N([C@H]4C[C@@H]4c4ccccc4)C(=O)C3C2)cn1 (mixture of isomers)
52 | 13 | O=C(Nc1ccnn1-c1ccccc1)N1CCN2C(=O)N([C@H]3C[C@@H]3c3ccccc3)C(=O)C2C1 (mixture of isomers)
53 | 94 | O=C(Nc1ccccc1-c1ccccc1)N1CCN2C(=O)N([C@H]3C[C@@H]3c3ccccc3)C(=O)C2C1 (mixture of isomers)
54 | 890 | O=C(Nc1ccc(-c2ccccc2)cc1)N1CCN2C(=O)N([C@H]3C[C@@H]3c3ccccc3)C(=O)C2C1 (mixture of isomers)
55 | > 2500 | O=C(Nc1ccccc1-c1ccccc1)N1CCN2C(=O)N([C@H]3C[C@H]3c3ccccc3)C(=O)C2C1 (mixture of isomers)
56 | 210 | CC(C)c1ccccc1NC(=O)N1CCN2C(=O)N([C@H]3C[C@@H]3c3ccccc3)C(=O)C2C1 (mixture of isomers)
57 | > 2500 | N#Cc1ccccc1NC(=O)N1CCN2C(=O)N([C@H]3C[C@@H]3c3ccccc3)C(=O)C2C1 (mixture of isomers)
58 | 1700 | COc1ccccc1NC(=O)N1CCN2C(=O)N([C@H]3C[C@@H]3c3ccccc3)C(=O)C2C1 (mixture of isomers)

tested on: not listed separately; assay: Growth inhibition of Ptch +/- mouse medulloblastoma cells; format: functional; conditions: Medulloblastoma cell

Row | Structure (SMILES) | CC50 [nM]
59 | O=C(Nc1cccc(Cl)c1Cl)N1CCN2C(=O)N([C@H]3C[C@@H]3c3ccccc3)C(=O)C2C1 (mixture of isomers) | 3.3
60 | O=C(Nc1ccccc1-c1ccccc1)N1CCN2C(=O)N([C@H]3C[C@@H]3c3ccccc3)C(=O)C2C1 (mixture of isomers) | 12

target: T1, Protein smoothened; conditions: Shh Light II; 2 uM
Description: Antagonist activity at smoothened expressed in mouse Shh Light2 cells co-expressing Gli-dependent reporter gene assessed as inhibition of Hh pathway at 2 uM

Row | Structure (SMILES) | inhibition
61 | CN(C)C(=O)N1CCN2C(=O)N([C@H]3C[C@@H]3c3ccccc3)C(=O)C2C1 (mixture of isomers) | Active

tested on: not listed separately; assay: Intrinsic clearance in rat liver microsomes assessed per mg of protein; format: ADME, Microsome; conditions: not given

Row | Structure (SMILES) | microsomal CLint [µL/min/mg]
62 | O=C(Nc1cccc(Cl)c1Cl)N1CCN2C(=O)N([C@H]3C[C@@H]3c3ccccc3)C(=O)C2C1 (mixture of isomers) | 180
63 | O=C(Nc1ccccc1-c1ccccc1)N1CCN2C(=O)N([C@H]3C[C@@H]3c3ccccc3)C(=O)C2C1 (mixture of isomers) | > 300
